Results on 1 molecule are retold here after patent US20110008396A1, “COMPOSITIONS AND METHODS FOR TREATING CARDIOVASCULAR CONDITIONS” (Rutgers, the Sate University of New Jersey, priority 2007, published 2011).

“Also recorded” adds a separate entry of the source.

For test [1], the system named is THP-1 macrophages. In words: GW internalization study (multiphoton imaging). It is filed as cell-based, human. The conditions noted are these: 5 hr, polymer 10^-6 M. As to the method:
In brief, differentiated THP-1 macrophages were incubated with NAPs at 10^−6 M and/or 10^−7M GW3965 for 5 hr in serum-free RPMI at 37° C. Cells were washed and fixed and multiphoton imaging to detect internalized GW3965 was performed on a Leica TCS SP2 system (Leica Microsystems, Inc., Exton, Pa.). The cells were illuminated using a titanium: sapphire femtosecond laser with a tunable wavelength from 780 nm to 920 nm (Mai Tai, repetition rate 80 Mhz, 100 fs pulse duration, 800 mW) and 470-500 nm emission.

A further test concerns ABCA1. Particulars: GW3965 at concentrations as high as 1*10^-6 M; cited from earlier work.
Test [2] relates to THP-1 macrophages. Put plainly: Efflux of high density lipoproteins (HDL secretion). It is filed as cell-based, human. The conditions noted are these: macrophages pre-loaded with hoxLDL 30 μg/ml, ApoA1 present. As to the method:
In brief, differentiated THP-1 macrophages were pre-incubated with 30 μg/ml highly oxidized LDL at 37° C. in serum-free RPMI 1640 for 24 hr. Next, NAPs at 10^−6 M and 10 ug/mL ApoA1 with or without 10^−7 M GW3965 were added to each well and incubated for a further 24 hours. The cell medium was then removed for analysis using the Biovision HDL and LDL/VLDL Cholesterol Quantification kit (BioVision, CA). The remaining macrophages were lysed using 0.03 g sodium dodecyl sulfate (SDS) in 30 ml sodium hydroxide (NaOH, 0.1N). The protein content was measured with the Modified Lowry protein assay (Pierce, Ill.) and the HDL secretion results were normalized per mg cell protein.

Test [3] relates to THP-1 macrophages. In words: hoxLDL efflux from macrophage cells. Type of test: cell-based, human. The conditions noted are these: GW3965 10^-8 M, NAPs 10^-6 M. As to the method:
THP-1, human monocytes, are grown in suspension, with RPMI medium containing 0.4 mM Ca^2+ and Mg^2+, (ATCC) and supplemented with 10% FBS, in an incubator with 5% CO2 at 37 C and split every four days through centrifugation. The cells are seeded at a concentration of 100,000 cells/cm^2 to continue monocyte cultures and to differentiate the cells into macrophage cells. Once the monocytes have been differentiated into macrophage cells they will become adherent and can be tested. The macrophage cells can not be propagated and will be used within a week of differentiation.
Highly oxidized LDL will be oxidized within five days of each experiment. BODIPY-labeled and unlabeled human plasma derived LDL (Molecular Probes, OR) is oxidized by 18 hours of incubation with 10 uM CuSO4 (Sigma) at 37 C with 5% CO2. (Oorni 1997; Chang 2001) The oxidation will be stopped with 0.01% w/v EDTA after the 18 hours.
The efflux of hoxLDL by macrophage cells was assayed by incubating fluorescently labeled hoxLDL (10 ug/mL) with cells for 2 hours at 37 C and 5% CO2. […] The images were analyzed with Image Pro Plus 5.1 software (Media Cybernetics, San Diego, Calif.) and normalized with cell number and compared to the control sample wherein no NAPs or ligand was administered.

In a further test the test system is LXRalpha. The conditions noted are these: GW3965 at concentrations as high as 1*10^-6 M; cited from earlier work.

In the case of `O=C(O)Cc1cccc(OCCCN(Cc2cccc(C(F)(F)F)c2Cl)CC(c2ccccc2)c2ccccc2)c1` [GW3965], the “internalization of GW3965 by macrophages (multiphoton images, in words)” value in the test on THP-1 macrophages [1] is given as “minimal uptake; also recorded: no drug uptake”. In the test with ABCA1, the “ABCA1 increase in HepG2 cells” value is given as not above 6 fold. Also, the “HDL secreted versus 100 percent baseline (in words)” value with THP-1 macrophages [2] is on record as “not significantly different”. In addition, in the test on THP-1 macrophages [3] (5 hours), the “hoxLDL efflux (in words)” value is given as “not effective”. Also, in the test on THP-1 macrophages [3] (hoxLDL 10 ug/mL 2 h, then test condition 5 h), the “less hoxLDL within the cells / cholesterol released (efflux) versus nothing administered” value came to 4%. Further, in the test on LXRalpha, the “LXRalpha increase in HepG2 cells” value was not above 3 fold.
